Test system: symptoms of diabetic gastroparesis
Assay: Phase 2 randomized, double-blind, placebo-controlled study METO-IN-002 of metoclopramide nasal spray: symptom scores (mGCSI-DD, GCSI-DD, PAGI-SYM, other endpoints)
Format: in vivo, human
Parameters: key to Stomach Fullness / Early Satiety / Feeling Full / Loss of Appetite / Bloating / Stomach Larger / Upper Abdominal Pain / Upper Abdominal Discomfort / mGCSI-DD (primary endpoint) / Nausea / Retching / Vomiting / Sheehan Disability Scales / Investigator Assessment of Overall Gastroparesis Severity / Subject Assessment of Overall Gastroparesis Severity / Investigator Assessment of Overall Treatment Effect / Subject Assessment of Overall Treatment Effect / Days w/o Vomiting / Days w/o Nausea / Days w/o Vomiting or Nausea / Days w/o Upper Abdominal Pain or Upper Abdominal Discomfort / Nausea Response by Response Threshold / GCSI-DD / Days w/o Vomiting or Retching &, No Use of Rescue Medication / Nausea Responder Analysis / Overall Severity of Gastroparesis Symptoms - Subject / PAGI-SYM Questionnaire / Nausea/Vomiting (listed under PAGI-SYM Questionnaire) / Bloating (listed under PAGI-SYM Questionnaire) / Upper Abdominal Pain/Discomfort (listed under PAGI-SYM Questionnaire) / Early Satiety (listed under PAGI-SYM Questionnaire): A=Favors Active; P=Favors Placebo
Settings: for Statistically significant improvement in mGCSI-DD score (in words): 10 mg IN and 14 mg IN arms, Baseline to Week 4
Protocol: Example 1: A Multicenter, Randomized, Double-Blind, Placebo-Controlled, Parallel Group, Dose-Ranging Clinical Study to Evaluate the Efficacy and Safety of Metoclopramide Nasal Spray Solution in Diabetic Subjects with Gastroparesis
The objectives of this study were to evaluate the safety and the effectiveness of two doses of metoclopramide nasal spray solution, 10 mg and 14 mg, compared to placebo in reducing the symptoms of diabetic gastroparesis and to assess the plasma concentrations of two doses of metoclopramide nasal spray in subjects with diabetic gastroparesis following a single dose and at steady state. The aforementioned dosages for the treatment and control of gastroparesis were administered before meals and/or before bed time. Subjects who met the entry criteria after the Washout Period (Day −7 to Day −1) were randomized using an IVRS, to metoclopramide nasal spray 10 mg, 14 mg, or placebo, in roughly equal numbers (approximately 1:1:1) using a predetermined randomization schedule employing permuted blocks. Randomization was preformed centrally.
Metoclopramide nasal spray solution, 200 mg/mL base (as monohydrochloride monohydrate) is a clear colorless to pale-yellow aqueous solution manufactured for Evoke Pharma. The metoclopramide nasal spray was packaged in a 10 mL amber glass vial mounted with a metered nasal spray pump. The metered dose vial delivered a 50 μL or 70 μL spray (10 mg or 14 mg of metoclopramide base respectively) with each actuation. One 10 mL vial contained sufficient metoclopramide nasal spray to deliver 120 doses of 10 mg or 14 mg.
A vehicle control was used as the placebo for metoclopramide nasal spray solution. The placebo spray was packaged in a 10 mL amber glass vial mounted with a metered nasal spray pump. The metered dose vial delivered a 50 μL spray with each actuation. One 10 mL vial contained sufficient placebo to deliver 120 doses. The delivery of either a 50 μL or 70 μL spray is indistinguishable to the subject or study staff.
A 7-day Washout Period preceded randomization. During this time, and for the duration of the study, subjects were asked to discontinue use of all medications that are known to ameliorate or exacerbate symptoms associated with diabetic gastroparesis. Subjects were trained on the use of an interactive voice response system (IVRS) to record the severity of nine gastroparesis symptoms of the GCSI-DD and additional symptoms such as: severity of abdominal pain and abdominal discomfort, number of hours of nausea, number of episodes of vomiting, and overall severity of gastroparesis symptoms in a daily diary. The IVRS was used during the treatment period for self-reported assessments. Subjects completed these diary assessments via the IVRS each evening.
Subjects with a mean GCSI-DD total score of <2.0 or >4.0 during the 7-day Washout Period were excluded from the study.
At the Randomization Visit (Day 0), the Patient Assessment of Upper Gastrointestinal Disorders Symptoms (PAGI-SYM) Questionnaire, and disability questionnaires were administered to the subject and the Investigator and subject assessed overall gastroparesis symptom severity (OGS) prior to taking study drug. Subjects began taking the study drug at the clinical site with a single dose on Day 0. The subjects returned to the clinic for safety and efficacy evaluations on Visits 4, 5, 6, and 7 (Days 7, 14, 21, and 28).
At each scheduled study visit to the clinical study site, the IVRS daily diary compliance was reviewed. In addition, at Visit 5 (Day 14), the PAGI-SYM Questionnaire was administered to the subject and the Investigator and subject assessed OGS severity. At the Final Visit (Day 28) subjects took their last dose of study drug at the clinical site and returned their vial of unused/remaining study drug. The subject completed the PAGI-SYM, and disability questionnaires. The Investigator and subject assessed OGS and overall treatment effect (OTE). […]

[1] = all subjects (ITT), 10 mg IN four times daily
[2] = all subjects (ITT), 14 mg IN four times daily
[3] = females, 10 mg IN four times daily
[4] = females, 10 mg IN four times daily, Week 4, vs placebo
[5] = females, 10 mg IN four times daily, listed as Metoclopramide
[6] = females, 14 mg IN four times daily
[7] = females, 14 mg IN four times daily, Week 4, vs placebo

CCN(CC)CCNC(=O)c1cc(Cl)c(N)cc1OC [metoclopramide, -amino-5-chloro-N-(2-(diethylamino)ethyl)-2-methoxybenzamide]
Mean Change from Baseline to Week 4 in mGCSI-DD [1]: −1.2
Mean mGCSI-DD total score at Week 4 [1]: 1.6
Mean Change from Baseline to Week 4 in mGCSI-DD [2]: −1.2
Mean mGCSI-DD total score at Week 4 [2]: 1.7
Statistically significant improvement in mGCSI-DD score (in words) (all subjects): neither Treatment Arm experienced statistically significant improvement
Difference of Least Square Means, mGCSI-DD change from Baseline to Week 4 (all subjects, 10 mg IN vs placebo): −0.20
Difference of Least Square Means, mGCSI-DD change from Baseline to Week 4 (all subjects, 14 mg IN vs Metoclopramide 10 mg): 0.06
Difference of Least Square Means, mGCSI-DD change from Baseline to Week 4 (all subjects, 14 mg IN vs placebo): −0.14
Symptoms with statistical separation or improved trends compared to placebo (female subjects, 11 symptoms collected): 11 of 11
Statistically significant improvement in mGCSI-DD score (in words) (females): statistically significant improvement
Mean Change from Baseline to Week 4 in mGCSI-DD [3]: −1.2 (−1.2)
Mean mGCSI-DD total score at Week 4 [3]: 1.6 (1.6)
Bloating [4]: A
Bloating (listed under PAGI-SYM Questionnaire) [4]: A
Days w/o Nausea [4]: A (p < 0.05)
Days w/o Upper Abdominal Pain or Upper Abdominal Discomfort [4]: A
Days w/o Vomiting [4]: A
Days w/o Vomiting or Nausea [4]: A (p < 0.05)
Days w/o Vomiting or Retching &, No Use of Rescue Medication [4]: A
Early Satiety [4]: A
Early Satiety (listed under PAGI-SYM Questionnaire) [4]: A
Feeling Full [4]: A (p < 0.05)
GCSI-DD [4]: A (p < 0.05)
Investigator Assessment of Overall Gastroparesis Severity [4]: A
Investigator Assessment of Overall Treatment Effect [4]: P
Loss of Appetite [4]: A
Nausea [4]: A (p < 0.05)
Nausea Responder Analysis [4]: A
Nausea Response by Response Threshold [4]: A (p < 0.05)
Nausea/Vomiting (listed under PAGI-SYM Questionnaire) [4]: A
Overall Severity of Gastroparesis Symptoms - Subject [4]: A (p < 0.05)
PAGI-SYM Questionnaire [4]: A
Retching [4]: A
Sheehan Disability Scales [4]: A
Stomach Fullness [4]: A
Stomach Larger [4]: A
Subject Assessment of Overall Gastroparesis Severity [4]: A
Subject Assessment of Overall Treatment Effect [4]: A
Upper Abdominal Discomfort [4]: A
Upper Abdominal Pain [4]: A (p < 0.05)
Upper Abdominal Pain/Discomfort (listed under PAGI-SYM Questionnaire) [4]: A
Vomiting [4]: A
mGCSI-DD (primary endpoint) [4]: A (p < 0.05)
Mean Change from Baseline to Week 4 in mGCSI-DD [5]: −1.2
Mean mGCSI-DD total score at Week 4 [5]: 1.6
Difference of Least Square Means, mGCSI-DD change from Baseline to Week 4 (females, 10 mg IN vs placebo): −0.38
Mean Change from Baseline to Week 4 in mGCSI-DD [6]: −1.3
Mean mGCSI-DD total score at Week 4 [6]: 1.7 (1.7)
Bloating [7]: A
Bloating (listed under PAGI-SYM Questionnaire) [7]: A
Days w/o Nausea [7]: A (p < 0.05)
Days w/o Upper Abdominal Pain or Upper Abdominal Discomfort [7]: P
Days w/o Vomiting [7]: A
Days w/o Vomiting or Nausea [7]: A (p < 0.05)
Days w/o Vomiting or Retching &, No Use of Rescue Medication [7]: A
Early Satiety [7]: A
Early Satiety (listed under PAGI-SYM Questionnaire) [7]: A
Feeling Full [7]: A
GCSI-DD [7]: A (p < 0.05)
Investigator Assessment of Overall Gastroparesis Severity [7]: A
Investigator Assessment of Overall Treatment Effect [7]: A
Loss of Appetite [7]: A
Nausea [7]: A (p < 0.05)
Nausea Responder Analysis [7]: A (p < 0.05)
Nausea Response by Response Threshold [7]: A (p < 0.05)
Nausea/Vomiting (listed under PAGI-SYM Questionnaire) [7]: A (p < 0.05)
Overall Severity of Gastroparesis Symptoms - Subject [7]: A
PAGI-SYM Questionnaire [7]: A
Retching [7]: A
Sheehan Disability Scales [7]: A
Stomach Fullness [7]: A
Stomach Larger [7]: A (p < 0.05)
Subject Assessment of Overall Gastroparesis Severity [7]: A
Subject Assessment of Overall Treatment Effect [7]: A
Upper Abdominal Discomfort [7]: A
Upper Abdominal Pain [7]: A (p < 0.05)
Upper Abdominal Pain/Discomfort (listed under PAGI-SYM Questionnaire) [7]: A
Vomiting [7]: A

Source: patent US20200405666A9, “TREATMENT OF SYMPTOMS ASSOCIATED WITH FEMALE GASTROPARESIS” (priority 2011, published 2020)
